In patent publication US20230293407A1, “Compositions Comprising (Bio)-Alkanediols with Antimicrobials for Product Protection” (Symrise AG, priority 2020, published 2023):

Legend:
Assay in all cases: preservation efficacy test (PET), European Pharmacopoeia 5.1.3
Assay type in all cases: cell-based
Aspergillus brasiliensis = details: for AB germ count, 7 days / AB germ count, 14 days / AB germ count, 28 days: substance at given % in test formulation; for count at 2 days / count at 7 days / count at 14 days / count at 28 days: AB, use concentration in label
Escherichia coli = details: for EC germ count, 2 days / EC germ count, 7 days / EC germ count, 14 days / EC germ count, 28 days: substance at given % in test formulation; for count at 2 days / count at 7 days / count at 14 days / count at 28 days: EC, use concentration in label
Candida albicans = details: for CA germ count, 2 days / CA germ count, 7 days / CA germ count, 14 days / CA germ count, 28 days: substance at given % in test formulation
Pseudomonas aeruginosa = details: for PA germ count, 2 days / count at 2 days: 2 days after inoculation; for PA germ count, 2 days / PA germ count, 7 days / PA germ count, 14 days / PA germ count, 28 days: substance at given % in test formulation; for PA germ count, 7 days / count at 7 days: 7 days after inoculation; for PA germ count, 14 days / count at 14 days: 14 days after inoculation; for PA germ count, 28 days / count at 28 days: 28 days after inoculation; for count at 2 days / count at 7 days / count at 14 days / count at 28 days: PA, use concentration in label
Staphylococcus aureus = details: for count at 2 days / count at 7 days / count at 14 days / count at 28 days: SA, use concentration in label
[1] = 7 days after inoculation, substance at given % in test formulation
[2] = 14 days after inoculation, substance at given % in test formulation
[3] = 28 days after inoculation, substance at given % in test formulation
[4] = CA, 28 days after inoculation, use concentration in label

## CCOC(=O)c1ccc(O)cc1 [0.1% Ethylparaben]
Aspergillus brasiliensis; 7 days after inoculation
  AB germ count, 7 days: 630.000
Aspergillus brasiliensis; 14 days after inoculation
  AB germ count, 14 days: 800.000
Aspergillus brasiliensis; 28 days after inoculation
  AB germ count, 28 days: 730.000
Escherichia coli; 2 days after inoculation
  EC germ count, 2 days: 440.000
Escherichia coli; 7 days after inoculation
  EC germ count, 7 days: 62.000
Escherichia coli; 14 days after inoculation
  EC germ count, 14 days: 280
Escherichia coli; 28 days after inoculation
  EC germ count, 28 days: 390
Candida albicans; 2 days after inoculation
  CA germ count, 2 days: 380.000
Candida albicans; 7 days after inoculation
  CA germ count, 7 days: 200.000
Candida albicans; 14 days after inoculation
  CA germ count, 14 days: 170.000
Candida albicans; 28 days after inoculation
  CA germ count, 28 days: 260.000
Pseudomonas aeruginosa
  PA germ count, 2 days: 1
  PA germ count, 7 days: 1
  PA germ count, 14 days: 1
  PA germ count, 28 days: 1
Staphylococcus aureus; [1]
  SA germ count, 7 days: 38.000
Staphylococcus aureus; [2]
  SA germ count, 14 days: 1
Staphylococcus aureus; [3]
  SA germ count, 28 days: 1

## CCCCCCCCC(O)CO (stereo not shown) [1,2-decylene glycol, reference compound]
Aspergillus brasiliensis; PET, Aspergillus brasiliensis (AB), 2 days after inoculation
  number of microorganisms, 2 days: 600.000
Aspergillus brasiliensis; PET, Aspergillus brasiliensis (AB), 7 days after inoculation
  number of microorganisms, 7 days: 520.000
Aspergillus brasiliensis; PET, Aspergillus brasiliensis (AB), 14 days after inoculation
  number of microorganisms, 14 days: 240.000
Aspergillus brasiliensis; PET, Aspergillus brasiliensis (AB), 28 days after inoculation
  number of microorganisms, 28 days: 190.000
Escherichia coli; PET, Escherichia coli (EC), 2 days after inoculation
  number of microorganisms, 2 days: 1
Escherichia coli; PET, Escherichia coli (EC), 7 days after inoculation
  number of microorganisms, 7 days: 1
Escherichia coli; PET, Escherichia coli (EC), 14 days after inoculation
  number of microorganisms, 14 days: 1
Escherichia coli; PET, Escherichia coli (EC), 28 days after inoculation
  number of microorganisms, 28 days: 1
Candida albicans; PET, Candida albicans (CA), 2 days after inoculation
  number of microorganisms, 2 days: 50.000
Candida albicans; PET, Candida albicans (CA), 7 days after inoculation
  number of microorganisms, 7 days: 12.000
Candida albicans; PET, Candida albicans (CA), 14 days after inoculation
  number of microorganisms, 14 days: 4.100
Candida albicans; PET, Candida albicans (CA), 28 days after inoculation
  number of microorganisms, 28 days: 1
Staphylococcus aureus; PET, Staphylococcus aureus (SA), 2 days after inoculation
  number of microorganisms, 2 days: 1
Staphylococcus aureus; PET, Staphylococcus aureus (SA), 7 days after inoculation
  number of microorganisms, 7 days: 1
Staphylococcus aureus; PET, Staphylococcus aureus (SA), 14 days after inoculation
  number of microorganisms, 14 days: 1
Staphylococcus aureus; PET, Staphylococcus aureus (SA), 28 days after inoculation
  number of microorganisms, 28 days: 1

## OCCCO [0.8% 1,3-propanediol]
Aspergillus brasiliensis; 2 days after inoculation
  count at 2 days: 900.000
Aspergillus brasiliensis; 7 days after inoculation
  count at 7 days: 650.000
Aspergillus brasiliensis; 14 days after inoculation
  count at 14 days: 270.000
Aspergillus brasiliensis; 28 days after inoculation
  count at 28 days: 380
Escherichia coli; 2 days after inoculation
  count at 2 days: 350.000
Escherichia coli; 7 days after inoculation
  count at 7 days: 74.000
Escherichia coli; 14 days after inoculation
  count at 14 days: 4.100
Escherichia coli; 28 days after inoculation
  count at 28 days: 1
Candida albicans; CA, 7 days after inoculation, use concentration in label
  count at 7 days: 650.000
Candida albicans; CA, 14 days after inoculation, use concentration in label
  count at 14 days: 630.000
Candida albicans; [4]
  count at 28 days: 1
Pseudomonas aeruginosa
  count at 2 days: 290
  count at 7 days: 200
  count at 14 days: 180
  count at 28 days: 1
Staphylococcus aureus; 2 days after inoculation
  count at 2 days: 180.000
Staphylococcus aureus; 7 days after inoculation
  count at 7 days: 58.000
Staphylococcus aureus; 14 days after inoculation
  count at 14 days: 820
Staphylococcus aureus; 28 days after inoculation
  count at 28 days: 1

## O=C([O-])CN(CCN(CC(=O)O)CC(=O)O)CC(=O)[O-].[Na+].[Na+] [0.2 % Disodium EDTA]
Aspergillus brasiliensis; 2 days after inoculation
  count at 2 days: 990.000
Aspergillus brasiliensis; 7 days after inoculation
  count at 7 days: 590.000
Aspergillus brasiliensis; 14 days after inoculation
  count at 14 days: 590.000
Aspergillus brasiliensis; 28 days after inoculation
  count at 28 days: 330.000
Escherichia coli; 2 days after inoculation
  count at 2 days: 330.000
Escherichia coli; 7 days after inoculation
  count at 7 days: 85.000
Escherichia coli; 14 days after inoculation
  count at 14 days: 85.000
Escherichia coli; 28 days after inoculation
  count at 28 days: 1.800
Candida albicans; [4]
  count at 28 days: 810.000
Pseudomonas aeruginosa
  count at 2 days: 1
  count at 7 days: 1
  count at 14 days: 1
  count at 28 days: 1
Staphylococcus aureus; 2 days after inoculation
  count at 2 days: 530.000
Staphylococcus aureus; 7 days after inoculation
  count at 7 days: 49.000
Staphylococcus aureus; 14 days after inoculation
  count at 14 days: 49.000
Staphylococcus aureus; 28 days after inoculation
  count at 28 days: 2.500

## CC(C)=CCC[C@](C)(O)[C@@H]1CC=C(C)CC1 [0.3% Dragosantol 100]
Aspergillus brasiliensis; 7 days after inoculation
  AB germ count, 7 days: 880.000
Aspergillus brasiliensis; 14 days after inoculation
  AB germ count, 14 days: 620.000
Aspergillus brasiliensis; 28 days after inoculation
  AB germ count, 28 days: 660.000
Escherichia coli; 2 days after inoculation
  EC germ count, 2 days: 120.000
Escherichia coli; 7 days after inoculation
  EC germ count, 7 days: 200
Escherichia coli; 14 days after inoculation
  EC germ count, 14 days: 1
Escherichia coli; 28 days after inoculation
  EC germ count, 28 days: 1
Candida albicans; 2 days after inoculation
  CA germ count, 2 days: 800.000
Candida albicans; 7 days after inoculation
  CA germ count, 7 days: 920.000
Candida albicans; 14 days after inoculation
  CA germ count, 14 days: 28.000
Candida albicans; 28 days after inoculation
  CA germ count, 28 days: 58.000
Pseudomonas aeruginosa
  PA germ count, 2 days: 1
  PA germ count, 7 days: 1
  PA germ count, 14 days: 1
  PA germ count, 28 days: 1
Staphylococcus aureus; 2 days after inoculation, substance at given % in test formulation
  SA germ count, 2 days: 370.000
Staphylococcus aureus; [1]
  SA germ count, 7 days: 290
Staphylococcus aureus; [2]
  SA germ count, 14 days: 1
Staphylococcus aureus; [3]
  SA germ count, 28 days: 1

## CCCCCC(O)CO (stereo not shown) [0.2 % 1,2-heptanediol]
Aspergillus brasiliensis; 2 days after inoculation
  count at 2 days: 790.000
Aspergillus brasiliensis; 7 days after inoculation
  count at 7 days: 630.000
Aspergillus brasiliensis; 14 days after inoculation
  count at 14 days: 230.000
Aspergillus brasiliensis; 28 days after inoculation
  count at 28 days: 220.000
Escherichia coli; 2 days after inoculation
  count at 2 days: 53.000
Escherichia coli; 7 days after inoculation
  count at 7 days: 1.100
Escherichia coli; 14 days after inoculation
  count at 14 days: 1
Escherichia coli; 28 days after inoculation
  count at 28 days: 1
Candida albicans; [4]
  count at 28 days: 420.000
Pseudomonas aeruginosa
  count at 2 days: 1
  count at 7 days: 1
  count at 14 days: 1
  count at 28 days: 1
Staphylococcus aureus; 2 days after inoculation
  count at 2 days: 84.000
Staphylococcus aureus; 7 days after inoculation
  count at 7 days: 2.300
Staphylococcus aureus; 14 days after inoculation
  count at 14 days: 1
Staphylococcus aureus; 28 days after inoculation
  count at 28 days: 1
